Tested on: DIO mice
Assay: Chronic GIPA-2 study: circulating lipids, liver and fat depots in DIO mice
Type: in vivo, mouse
Conditions: day 28, n = 10
Method: For studying the chronic effects of GIPA-2, male C57BL/6JRj mice (n = 40) were fed a HFD (SSNIFF® diet #12492) for 43 weeks. DIO mice were randomized (n = 10 per group) based on baseline blood glucose and body weight. Liraglutide was dissolved in PBS plus 0.1% BSA (Vehicle1) and GIPA-2 in PBS (vehicle 2). Mice received one of the following four treatments daily for 28 days while still maintained on HFD: (1) vehicle 1 (SC) and vehicle 2 (SC); (2) 0.2 mg/kg liraglutide (SC) and vehicle 2; (3) vehicle 1 (SC) and 10 mg/kg GIPA-2 (SC); and (4) 0.2 mg/kg liraglutide (SC) plus 10 mg/kg GIPA-2 (SC). GIPA-2 dose levels were selected based on doses shown to sufficiently antagonize insulinotropic actions of exogenous GIP in acute IPGTT studies (Fig 1J) adjusted for single daily dosing over the 4-week treatment period. Fasted (4 hrs) blood glucose and insulin were measured on study day -4, 10 and 26. An OGTT was performed on day 17. On the day of the OGTT the fasted animals (4 hrs) received their daily doses of vehicles, liraglutide and GIPA-2 one hour before receiving a glucose bolus (2 g/kg). Blood glucose was measured before their daily dosing and at 0, 15, 30 60, 120, 180 and 240 min after glucose administration. An insulin tolerance test (ITT) was performed on day 24. Fasting (4 hrs) mice received their daily doses of vehicles, liraglutide and GIPA-2 one hour before receiving insulin (0.5 U/kg, intraperitoneal injection). Blood glucose was measured before their daily dosing and at 0, 15, 30 60, 120, 180 min after glucose administration. Similar measurements were performed as in the GIPA-1 study. […]
Fasting blood glucose was measured using a BIOSEN c-Line glucose meter (EKF-Diagnostics), insulin was measured using the Meso Scale Diagnostics platform, TG and TC were measured using commercial kits (Roche Diagnostics) on the Cobas C-501 autoanalyzer (Roche), and FFA levels were measured using a Wako Chemicals kit on the Cobas C-501 autoanalyzer, all according to the manufacturers’ instructions. Homeostatic model assessment of insulin resistance (HOMA-IR) was calculated using the following equation: [fasting serum glucose (mmol/L) × fasting serum insulin (pmol/L) / 22.5] to assess insulin resistance.
Fig 4 The effect of GIPR antagonism alone or in combination with liraglutide on lipid homeostasis in DIO mice. […] Statistical analysis was calculated using one-way ANOVA with Dunnett’s post-hoc test. *: p< 0.05, **: p < 0.01, ***: p < 0.001, ****: p<0.0001 compared to vehicle.
Supplementary file pone.0249239.s002.tif: S2 Fig The effect of GIPR antagonists alone or in combination with liraglutide on lipid homeostasis in DIO mice. […] Statistical analysis was calculated using one-way ANOVA with Dunnett’s post-hoc test. *: p< 0.05, **: p < 0.01, ***: p < 0.001, ****: p<0.0001 compared to vehicle. […]

liraglutide
circulating total cholesterol (TC): significantly reduced circulating TC and liver TG concentrations
liver TG: significantly reduced circulating TC and liver TG concentrations
plasma FFA: no effect on either plasma TG or concentrations of circulating FFA
plasma TG: no effect on either plasma TG or concentrations of circulating FFA

From publication PMC8011784, “Chronic peptide-based GIP receptor inhibition exhibits modest glucose metabolic changes in mice when administered either alone or combined with GLP-1 agonism” (PLoS ONE, 2021)
